The target of one test is T1, placental αvβ3 (Homo sapiens, UniProt P05106+P06756).
T1 construct: purified active GP IIb-IIIa (Calbiochem) or olacental αvβ3 at 0.5 μg/ml; from tissue; host or cells: placenta
Kind of test: Fibrinogen binding to immobilized αvβ3. The following applies: biotinylated-fibrinogen 10 nM, immobilized placental αvβ3; read-out: IC50 values for the fibrinogen binding assay αvβ3. On the procedure: (§1) Nonbound fibrinogen was removed by five washes with binding buffer. Avidin conjugated to alkaline phosphatase (Sigma), diluted in binding buffer, was added and incubated for two hours at 37° C. The plates were washed five times with binding buffer, and after addition of the substrate PNPP (Pierce), the enzyme activity was measured by the absorbance at 405 nm.

The test system of test [1] is Chick Chorioallantoic Membrane (CAM) capillary formation. The test can be described thus: Chick chorioallantoic membrane (CAM) mesh assay. The format is in vivo, chicken. The following applies: Day 12, 24 hr treatment. The protocol: Fertilized white leghorn chicken eggs (SPAFAS Inc., Norwich, Conn.) were received at day 0 and incubated for 3 days at 37 C with constant humidity. On day 3, eggs were rinsed with 70% ethanol and opened into 100 mm^2 tissue culture coated Petri dishes under aseptic conditions. The embryos were then returned to a humidified 38 C incubator for 7-9 additional days.
Vitrogen (Collagen Biomaterials, Palo Alto, Calif.) at a final concentration of 0.73 mg/ml and Matrigel (Becton Dickinson, Bedford, Mass.) at a final concentration of 10 mg/ml was directly pipetted onto Nylon meshes with 250 μm^2 openings which were cut into 4 mm×4 mm squares and autoclaved. Polymerization of meshes were under aseptic conditions, on bacteriological Petri dishes. The polymerization conditions for each substrate were identical; after mixing with or without […] of VPF/VEGF165 (Peprotech, Rocky Hill, N.J.) and/or compounds of interest, 40 μl were pipetted onto each mesh in a bacteriological Petri dish.
The Petri dish was placed in a humidified 37 C incubator with 5% CO2 for 30 minutes to allow polymerization followed by an incubation at 4 C for 2 hours.
In a tissue culture enclosure, meshes were placed onto the periphery of the CAM of a day 12-14 embryo, excluding areas containing major vessels. The embryos were then returned to the humidified 38 C incubator with 3% CO2 for 24 to 48 additional hours.
Embryos were removed from the incubator and meshes were viewed under a dissecting microscope for gross evaluation. Injection of 400 μl FITC dextran, MW 2,000,000 (Sigma, St. Louis, Mo.) through glass microcapillary tubes by infusion into the umbilical vein was performed at a rate of 200 μl per minute. The FITC dextran was allowed to circulate for 5 minutes and 3.7% formaldehyde in PBS was applied directly on each mesh. The embryos were then incubated at 4 C for 5 minutes and the meshes were dissected off the CAM and fixed in 3.7% formaldehyde for 10 minutes to overnight.
After fixation, meshes were mounted on slides with 90% glycerol in PBS and visualized on an inverted fluorescence microscope. A Nikon Diaphot with a Sony DXC-151A camera attached to the side port was used for capture of images and analysis was with the NIH Image 1.61 software program. For each mesh, 5 random staggered images (approximately 600 μm each) were captured. The areas of high intensity were highlighted and measured. Results are expressed as ability to suppress capillary formation after subtraction from negative control. Values were calculated as i inhibition, considering 100% the capillary density achieved by VPF in the presence of vitrogen alone minus the background levels in the absence of VPF. Negative values indicate angiogenic stimulation above the VPF positive control.

A further test concerns the target T2, GP IIb-IIIa (αIIbβ3) (Homo sapiens, UniProt P05106+P08514).
T2 construct: purchased Calbiochem
The test can be described thus: Fibrinogen binding to immobilized GP IIb-IIIa (αIIbβ3). The following applies: biotinylated-fibrinogen 10 nM, immobilized GP IIb-IIIa; read-out: IC50 values for the fibrinogen binding assay αIIbβ3. On the procedure: as §1

18 molecules from patent US6630488B1, “Quinolizinones as integrin inhibitors” (Biochem Pharma, Inc., priority 1998, dated 2003) can be followed below.

Structures can show the parent of a compound that is named as a salt. Bounds are passed on as bounds.

T2 sequence (P08514 32-887 limits assumed): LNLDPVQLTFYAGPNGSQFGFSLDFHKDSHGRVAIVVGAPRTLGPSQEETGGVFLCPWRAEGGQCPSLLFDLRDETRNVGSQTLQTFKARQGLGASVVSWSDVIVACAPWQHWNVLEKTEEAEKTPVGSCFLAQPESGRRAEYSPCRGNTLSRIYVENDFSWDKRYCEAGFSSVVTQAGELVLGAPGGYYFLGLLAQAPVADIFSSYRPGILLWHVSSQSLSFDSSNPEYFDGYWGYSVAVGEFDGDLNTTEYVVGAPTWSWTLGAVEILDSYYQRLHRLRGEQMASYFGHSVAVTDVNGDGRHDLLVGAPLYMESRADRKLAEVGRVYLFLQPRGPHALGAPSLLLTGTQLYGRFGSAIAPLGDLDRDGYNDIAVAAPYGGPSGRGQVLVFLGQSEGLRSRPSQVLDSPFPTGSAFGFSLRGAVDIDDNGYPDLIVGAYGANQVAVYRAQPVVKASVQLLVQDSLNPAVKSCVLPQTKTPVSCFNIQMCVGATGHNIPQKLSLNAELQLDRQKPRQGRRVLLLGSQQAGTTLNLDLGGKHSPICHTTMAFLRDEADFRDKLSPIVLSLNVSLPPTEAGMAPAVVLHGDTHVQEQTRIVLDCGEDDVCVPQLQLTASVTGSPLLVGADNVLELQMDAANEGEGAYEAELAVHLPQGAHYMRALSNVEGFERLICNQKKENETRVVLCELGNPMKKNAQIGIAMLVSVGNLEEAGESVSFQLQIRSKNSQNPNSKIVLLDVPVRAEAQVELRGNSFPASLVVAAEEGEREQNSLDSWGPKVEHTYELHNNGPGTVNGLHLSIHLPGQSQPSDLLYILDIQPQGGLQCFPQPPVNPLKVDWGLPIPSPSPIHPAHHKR
T2 sequence (P08514 891-1039 partner limits assumed): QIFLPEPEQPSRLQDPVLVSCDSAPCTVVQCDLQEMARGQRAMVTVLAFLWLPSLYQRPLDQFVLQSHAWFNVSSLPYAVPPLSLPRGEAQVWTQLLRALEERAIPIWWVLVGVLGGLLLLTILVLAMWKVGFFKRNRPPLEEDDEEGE
T2 sequence (P05106 27-788): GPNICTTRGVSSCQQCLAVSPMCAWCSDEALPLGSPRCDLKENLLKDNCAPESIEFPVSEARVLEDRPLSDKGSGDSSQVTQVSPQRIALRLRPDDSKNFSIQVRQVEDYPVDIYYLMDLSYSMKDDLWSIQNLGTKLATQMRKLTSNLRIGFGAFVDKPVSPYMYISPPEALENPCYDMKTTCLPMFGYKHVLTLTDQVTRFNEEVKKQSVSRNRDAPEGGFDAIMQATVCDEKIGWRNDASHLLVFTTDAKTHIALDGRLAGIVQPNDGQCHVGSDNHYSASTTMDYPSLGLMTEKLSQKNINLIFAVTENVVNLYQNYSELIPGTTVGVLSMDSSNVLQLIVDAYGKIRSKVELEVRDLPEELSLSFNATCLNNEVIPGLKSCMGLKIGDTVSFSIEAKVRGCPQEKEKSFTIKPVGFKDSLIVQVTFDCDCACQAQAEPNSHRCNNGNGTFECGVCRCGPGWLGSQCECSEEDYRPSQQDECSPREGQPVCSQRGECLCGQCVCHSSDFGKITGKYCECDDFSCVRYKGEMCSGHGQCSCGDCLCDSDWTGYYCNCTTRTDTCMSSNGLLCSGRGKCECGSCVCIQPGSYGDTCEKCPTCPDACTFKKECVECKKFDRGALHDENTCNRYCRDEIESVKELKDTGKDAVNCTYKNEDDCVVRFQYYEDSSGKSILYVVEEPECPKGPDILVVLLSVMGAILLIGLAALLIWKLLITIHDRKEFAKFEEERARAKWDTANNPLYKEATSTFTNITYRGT
T1 sequence (P06756 31-889 limits assumed): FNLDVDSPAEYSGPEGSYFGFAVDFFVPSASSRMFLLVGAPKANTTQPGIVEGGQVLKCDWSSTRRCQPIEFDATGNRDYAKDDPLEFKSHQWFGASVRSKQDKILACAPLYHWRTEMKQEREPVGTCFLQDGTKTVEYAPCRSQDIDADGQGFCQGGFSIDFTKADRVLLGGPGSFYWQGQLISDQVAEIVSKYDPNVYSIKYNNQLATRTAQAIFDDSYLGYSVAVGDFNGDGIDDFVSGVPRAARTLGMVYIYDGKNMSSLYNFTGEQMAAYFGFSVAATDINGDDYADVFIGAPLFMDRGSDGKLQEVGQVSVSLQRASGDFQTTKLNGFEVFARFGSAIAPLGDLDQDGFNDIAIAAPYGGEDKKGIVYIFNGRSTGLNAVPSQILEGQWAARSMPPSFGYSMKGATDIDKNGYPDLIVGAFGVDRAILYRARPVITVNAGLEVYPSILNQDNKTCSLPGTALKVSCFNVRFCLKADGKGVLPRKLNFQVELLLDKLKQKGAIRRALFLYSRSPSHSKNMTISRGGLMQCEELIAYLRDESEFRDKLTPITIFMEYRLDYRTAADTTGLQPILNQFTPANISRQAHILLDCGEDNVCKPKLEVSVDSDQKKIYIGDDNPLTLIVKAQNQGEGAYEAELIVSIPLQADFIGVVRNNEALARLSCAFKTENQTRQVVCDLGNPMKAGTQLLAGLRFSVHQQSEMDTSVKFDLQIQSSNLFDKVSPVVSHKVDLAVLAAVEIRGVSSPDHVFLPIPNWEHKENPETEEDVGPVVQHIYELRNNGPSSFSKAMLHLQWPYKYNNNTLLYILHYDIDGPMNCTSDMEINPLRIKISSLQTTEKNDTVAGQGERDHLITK
T1 sequence (P06756 891-1048 partner limits assumed): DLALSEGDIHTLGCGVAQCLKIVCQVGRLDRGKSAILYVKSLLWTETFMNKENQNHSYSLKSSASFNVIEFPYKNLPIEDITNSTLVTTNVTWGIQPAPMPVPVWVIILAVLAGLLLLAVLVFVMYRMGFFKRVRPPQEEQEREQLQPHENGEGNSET
T1 sequence (P05106 27-788): as the sequence (P05106 27-788) above

For `N=C(N)N1CCN(c2ccn3c(=O)c(C(=O)NC(CC(=O)O)c4ccccc4)ccc3c2)CC1.O=C(O)C(F)(F)F` (racemic) [Compound XL, (+/−)-3-{[8-(4-Carbamimidoyl-piperazin-1-yl)-4-oxo-4H-quinolizine-3-carbonyl]-amino}-3-phenyl-propionic Acid Trifluoroacetic Acid Salt], at placental αvβ3, the IC50 amounted to 1.9 µM. Moreover, the “CAM inhibition of capillary formation” value was −2% in test [1] (3 μg/mesh, +VPF); 4% in test [1] (3 μg/mesh, −VPF); 7% in test [1] (17 μg/mesh, +VPF); 10% in test [1] (17 μg/mesh, −VPF); 11% in test [1] (33 μg/mesh, +VPF); 9% in test [1] (33 μg/mesh, −VPF).
Consider `O=C(NC[C@H](NS(=O)(=O)c1ccccc1)C(=O)O)c1cc(=O)n2cc(CNc3ncccn3)ccc2c1` [Compound XLVI, (S)-2-Benzenesulfonylamino-3-([4-oxo-7-(pyrimidin-2-ylaminomethyl)-4H-quinolizine-2-carbonyl]-amino)-propionic acid trifluoroacetic acid salt], for which the IC50 is 0.29 µM on placental αvβ3 and 3.5 µM at GP IIb-IIIa (αIIbβ3).
Regarding `O=C(NCc1ccccc1)NCc1ccc2cc(C(=O)NC[C@H](NS(=O)(=O)c3ccccc3)C(=O)O)cc(=O)n2c1` [Compound XLVII, (S)-2-Benzenesulfonylamino-3-{[7-(3-benzyl-ureidomethyl)-4-oxo-4H-quinolizine-2-carbonyl]-amino}-propionic acid], the IC50 at placental αvβ3 stood at 0.006 µM; at GP IIb-IIIa (αIIbβ3) it was 4.85 µM.
As for `N=C(N)NCc1ccc2cc(C(=O)NC[C@H](NC(=O)OCc3ccccc3)C(=O)O)cc(=O)n2c1` [Compound XLVIII, (S)-2-Benzyloxycarbonylamino-3-[(7-guanidinomethyl-4-oxo-4H-quinolizine-2-carbonyl)-amino]-propionic acid trifluoroacetic acid salt], the half-maximal inhibitory concentration (IC50) on placental αvβ3 turned out to be 0.0049 µM; on GP IIb-IIIa (αIIbβ3), 2.6 µM.
As to `NCCCOc1ccc2cc(C(=O)NCCC(=O)O)cc(=O)n2c1` [Compound XVI, 3-{[7-(3-Amino-propoxy)-4-oxo-4H-quinolizine-2-carbonyl]-amino}-propionic Acid Trifluoroacetic Acid Salt], the values for the IC50 on placental αvβ3 and on GP IIb-IIIa (αIIbβ3) were > 100 µM and 1.5 µM, respectively.
Turning to `NCCCCOc1ccc2cc(C(=O)NC[C@H](NS(=O)(=O)c3ccccc3)C(=O)O)cc(=O)n2c1` [Compound XVII, (S)-3-{[7-(4-Amino-butoxy)-4-oxo-4H-quinolizine-2-carbonyl]-amino}-2-benzenesulfonylamino-propionic Acid Trifluoroacetic Acid Salt], the half-inhibitory concentration (IC50) at placental αvβ3 worked out at 5.1 µM; on GP IIb-IIIa (αIIbβ3), 0.00017 µM.
On to `N=C(N)NCCCCOc1ccc2cc(C(=O)NC[C@H](NS(=O)(=O)c3ccccc3)C(=O)O)cc(=O)n2c1` [Compound XVIII, (S)-2-Benzenesulfonylamino-3-{[7-(4-guanidino-butoxy)-4-oxo-4H-quinolizine-2-carbonyl]-amino}-propionic Acid Hydrochloride], for which the half-maximal inhibitory concentration (IC50) on placental αvβ3 came out at 2.2 µM; at GP IIb-IIIa (αIIbβ3), 0.0053 µM.
On to `N=C(N)NCCCOc1ccc2cc(C(=O)NCC(Nc3ncccn3)C(=O)O)cc(=O)n2c1` (centres unmarked) [Compound XXII, 3-{[7-(3-Guanidino-propoxy)-4-oxo-4H-quinolizine-2-carbonyl]-amino}-2-(pyrimidin-2-ylamino)-propionic Acid Hydrochloride], for which the IC50 is 0.54 µM on placental αvβ3 and 0.045 µM at GP IIb-IIIa (αIIbβ3).
Regarding `CN([C@@H](CNC(=O)c1cc(=O)n2cc(OCCCN)ccc2c1)C(=O)O)S(=O)(=O)c1ccccc1` [Compound XXIII, (S)-3-{[7-(3-Amino-propoxy)-4-oxo-4H-quinolizine-2-carbonyl]-amino}-2-(benzenesulfonyl-methyl-amino)-propionic Acid Trifluoroacetic Acid Salt], the values for the IC50 at placental αvβ3 and at GP IIb-IIIa (αIIbβ3) were > 100 µM and 0.82 µM, respectively.
Consider `CN([C@@H](CNC(=O)c1cc(=O)n2cc(OCCCNC(=N)N)ccc2c1)C(=O)O)S(=O)(=O)c1ccccc1` [Compound XXIV, (S)-2-(Benzenesulfonyl-methyl-amino)-3-{[7-(3-guanidino-propoxy)-4-oxo-4H-quinolizine-2-carbonyl]-amino}-propionic Acid Hydrochloride], for which the IC50 came to 58 µM on placental αvβ3 and 1.3 µM at GP IIb-IIIa (αIIbβ3).
Turning to `O=C(NC[C@H](NS(=O)(=O)c1ccccc1)C(=O)O)c1cc(=O)n2cc(OCCCNc3ncccn3)ccc2c1` [Compound XXV, (S)-2-Benzenesulfonylamino-3-({4-oxo-7-[3-(pyrimidin-2-ylamino)-propoxy]-4H-quinolizine-2-carbonyl}-amino)-propionic Acid], the IC50 came to 15 µM on placental αvβ3 and 1.25 µM on GP IIb-IIIa (αIIbβ3).
Take `NCC1CCc2cc(C(=O)NCC(NS(=O)(=O)c3ccccc3)C(=O)O)cc(=O)n2C1` [Compound XXVIII, (2S, 7R) and (2S, 7S)-3-[(7-Aminomethyl-4-oxo-6,7,8,9-tetrahydro-4H-quinolizine-2-carbonyl)-amino]-2-benzenesulfonylamino-propionic Acid Trifluoroacetic Acid Salt]: the half-maximal inhibitory concentration (IC50) at placental αvβ3 amounted to 0.37 µM; on GP IIb-IIIa (αIIbβ3) it was 0.1 µM.
In the case of `NCCCOc1ccn2c(=O)cc(C(=O)NC[C@H](NS(=O)(=O)c3ccccc3)C(=O)O)cc2c1` [Compound XXX, (S)-3-{[8-(3-Amino-propoxy)-4-oxo-4H-quinolizine-2-carbonyl]-amino}-2-benzenesulfonylamino-propionic Acid Trifluoroacetic Acid Salt], the IC50 on placental αvβ3 was 17 µM; on GP IIb-IIIa (αIIbβ3), 0.11 µM.
Take `N=C(N)NCCCOc1ccn2c(=O)cc(C(=O)NC[C@H](NS(=O)(=O)c3ccccc3)C(=O)O)cc2c1` [Compound XXXI, (S)-2-Benzenesulfonylamino-3-{[8-(3-guanidino-propoxy)-4-oxo-4H-quinolizine-2-carbonyl]-amino)-propionic Acid Hydrochloride]: the 50% inhibitory concentration (IC50) was 9.4 µM at placental αvβ3 and 0.024 µM at GP IIb-IIIa (αIIbβ3).
Turning to `NCCCCOc1ccn2c(=O)cc(C(=O)NC[C@H](NS(=O)(=O)c3ccccc3)C(=O)O)cc2c1` [Compound XXXII, (S)-3-{[8-(4-Amino-butoxy)-4-oxo-4H-quinolizine-2-carbonyl]-amino}-2-benzenesulfonylamino-propionic Acid Trifluoroacetic Acid Salt], the half-maximal inhibitory concentration (IC50) on placental αvβ3 worked out at 12 µM; on GP IIb-IIIa (αIIbβ3), 0.0055 µM.
For the molecule `N=C(N)NCCCCOc1ccn2c(=O)cc(C(=O)NC[C@H](NS(=O)(=O)c3ccccc3)C(=O)O)cc2c1` [Compound XXXIII, (S)-2-Benzenesulfonylamino-3-{[8-(4-guanidino-butoxy)-4-oxo-4H-quinolizine-2-carbonyl]-amino}-propionic Acid Hydrochloride], the half-maximal inhibitory concentration (IC50) on placental αvβ3 was determined as 15 µM; on GP IIb-IIIa (αIIbβ3), 0.044 µM.
In the same order, the values of `NCCCCCOc1ccn2c(=O)cc(C(=O)NC[C@H](NS(=O)(=O)c3ccccc3)C(=O)O)cc2c1` [Compound XXXIV, (S)-3-{[8-(S-Amino-pentyloxy)-4-oxo-4H-quinolizine-2-carbonyl]-amino}-2-benzenesulfonylamino-propionic Acid Trifluoroacetic Acid Salt] are 17 µM and 0.016 µM.
In the same order, the values of `N=C(N)NCCCCCOc1ccn2c(=O)cc(C(=O)NC[C@H](NS(=O)(=O)c3ccccc3)C(=O)O)cc2c1` [Compound XXXV, (S)2-Benzenesulfonylamino-3-{[8-(5-guanidino-pentyloxy)-4-oxo-4H-quinolizine-2-carbonyl]-amino}propionic Acid Hydrochloride] are 15 µM and 1.5 µM.
